This test relates to hCLRN1^N48K-YFP; clrn1^KO/KO larvae. Kind of test: Startle response and swimming/balance behavior of ART treated hCLRN1^N48K-YFP; clrn1^KO/KO larvae. It counts as in vivo, zebrafish. Here is the method: The startle response and swimming behavior of the clrn1^+/+ larvae, clrn1^KO/KO larvae, hCLRN1-YFP; clrn1^KO/KO larvae and hCLRN1^N48K-YFP; clrn1^KO/KO larvae were recorded at 6.5dpf, 10.5dpf, 16.5dpf and 27dpf as described earlier (Table-1). The extracellular microphonics potentials were recorded at 6dpf to confirm the hair cell function in these humanized zebrafish models for hCLRN1 (hCLRN1-YFP; clrn1^KO/KO larvae larvae) and USH3-CLRN1^N48Kmutant (hCLRN1^N48K-YFP; clrn1^KO/KO larvae) as described earlier (FIG. 5).
At 6.5 dpf, clrn1^+/+ larvae often tend to swim towards the middle or closer to surface of the water (E3 medium) in the Petri dish, and escape swiftly from the field of view when startled (by tapping the Petri dish with a metal probe). At 6.5 dpf, hCLRN1^N48K-YFP; clrn1^KO/KO larvae (n=40) were hard to distinguish from clrn1^+/+ larvae in a Petri dish when viewed from the top. […] To monitor hair cell function in the hCLRN1^N48K-YFP; clrn1^KO/KO zebrafish, larvae from several clutch were observed longitudinally from 6.5 to 27 dpf for survival, swimming behavior and startle response (Table 1). […] However, 5% of the hCLRN1^N48K-YFP; clrn1^KO/KO zebrafish do survive long enough to be able to breed like its clrn1^+/+ counterpart. […] In this model, hair cells expressing hCLRN1^N48K retained hair bundle structure and function for a longer duration than clrn1^KO/KO hair cells, consistent with previous report ‘USH3-CLRN1Y176X individuals develop severe hearing loss earlier in life compared with CLRN1^N48K individuals’. This new model for inner ear disorder associated with hCLRN1^N48K mutation will be useful to identify therapeutic agents to prevent progressive loss of hair cell function in USH3-CLRN1^N48K mutant individuals.
To verify the degree of overall rescue in swimming behavior (hair cell function) and prolongation of life span by ART treatment in the hCLRN1^N48K-YFP; clrn1^KO/KO zebrafish larvae, survival rate, swimming behavior and startle response were observed longitudinally from 6.5 to 27 dpf (Table 1). For this rescue experiment, we followed two regimens of ART treatment. Regimen I, 35 larvae from hCLRN1^N48K-YFP; clrn1^KO/KO genotype were treated with 0.4 uM ART from 3 to 7 dpf (5 days of treatment during inner ear development and hair cell maturation). Regimen II, 20 larvae from hCLRN1^N48K-YFP; clrn1^KO/KO genotype were treated with 0.4 uM ART from 3 to 12 dpf (10 days of treatment overlapping development and post-development of inner ear anatomy and hair cell maturation). At 6.5 dpf, the swimming behavior and startle response of hCLRN1^N48K-YFP; clrn1^KO/KO larvae from ART treatment regimen I and II, were indistinguishable from that of clrn1^+/+ and hCLRN1-YFP; clrn1^KO/KO larvae. About 75% (Regimen I+II: 41 larvae) of ART treated hCLRN1^N48K-YFP; clrn1^KO/KO larvae had clrn1^+/+ equivalent startle response. In regimen I and II, the survival rate and swimming behavior of hCLRN1^N48K-YFP; clrn1^KO/KO larvae beyond 25 dpf shown significant improvement from 5% in untreated hCLRN1^N48K-YFP; clrn1^KO/KO larvae to 40% (n=14) and 45% (n=[…]), respectively. […] Overall, result confirms that ART is not only able to correct the trafficking defect of hCLRN1^N48K protein, but also able to help in normal hair cell functioning of hair cells from hCLRN1^N48K-YFP; clrn1^KO/KO zebrafish and delay onset progressive loss of hair cell function.

[1] abbreviates: Regimen I: 0.4 μM ART from 3 to 7 dpf.

Each structure is given as a SMILES string.

As for `C[C@@H]1CC[C@H]2[C@@H](C)C(=O)O[C@@H]3O[C@@]4(C)CC[C@@H]1[C@]32OO4` [ART, Artemisinin], for the setting “ART treatment regimen I and II, 6.5 dpf”, the “Swimming behavior and startle response compared with clrn1^+/+ and hCLRN1-YFP; clrn1^KO/KO larvae” value was “indistinguishable”. In addition, the “Larvae with clrn1^+/+ equivalent startle response” value (Regimen I+II, 0.4 uM ART, 6.5 dpf) is listed as “About 75%”. Under setting [1], the “% of abnormal swimming-balance (6.5 dpf)” value is listed as 25.71%, the “% of normal swimming-balance (>25 dpf)” value came out at 40% and the “% showing startle response at 6.5 dpf” value amounted to 100%. The “% of normal swimming-balance (>25 dpf)” value (Regimen II: 0.4 μM ART from 3 to 12 dpf) came to 45%.

The record behind these values is US11865103B2, “Methods of treating disorders associated with glycosylation defective proteins” (CASE WESTERN RESERVE UNIVERSITY, priority 2016, dated 2024).
